Reference: ChEMBL document CHEMBL5096183, “Contemporary advances of cyclic molecules proposed for inflammation” (Eur J Med Chem, 2021)
Values belong to the compound of their own block, whether it stands above or below them.

What was measured:
Rattus norvegicus [1] = assay: Anti-inflammatory activity against carrageenan-induced paw edema in rat
Rattus norvegicus [2] = assay: Anti-inflammatory activity against carrageenan-induced paw edema in rat relative to control; assay type: functional
Rattus norvegicus [3] = assay: Anti-inflammatory activity against carrageenan-induced paw edema in PO dosed Wistar albino rat measured after 2 hrs; assay type: functional
Mus musculus [4] = assay: Anti-inflammatory activity against Carrageenan-induced paw edema in Swiss albino mouse assessed as change in paw volume at 10 mg/kg, PO measured for 3 to 6 hrs by plethysmometric analysis relative to control; assay type: functional; details: time 3-6 hrs
[5] = biological target: T1, Prostaglandin G/H synthase 1 (Ovis aries, UniProt P05979); assay: Inhibition of ovine COX-1 preincubated for 10 mins followed by arachidonic acid addition for 2 mins
T1 sequence (P05979 whole entry): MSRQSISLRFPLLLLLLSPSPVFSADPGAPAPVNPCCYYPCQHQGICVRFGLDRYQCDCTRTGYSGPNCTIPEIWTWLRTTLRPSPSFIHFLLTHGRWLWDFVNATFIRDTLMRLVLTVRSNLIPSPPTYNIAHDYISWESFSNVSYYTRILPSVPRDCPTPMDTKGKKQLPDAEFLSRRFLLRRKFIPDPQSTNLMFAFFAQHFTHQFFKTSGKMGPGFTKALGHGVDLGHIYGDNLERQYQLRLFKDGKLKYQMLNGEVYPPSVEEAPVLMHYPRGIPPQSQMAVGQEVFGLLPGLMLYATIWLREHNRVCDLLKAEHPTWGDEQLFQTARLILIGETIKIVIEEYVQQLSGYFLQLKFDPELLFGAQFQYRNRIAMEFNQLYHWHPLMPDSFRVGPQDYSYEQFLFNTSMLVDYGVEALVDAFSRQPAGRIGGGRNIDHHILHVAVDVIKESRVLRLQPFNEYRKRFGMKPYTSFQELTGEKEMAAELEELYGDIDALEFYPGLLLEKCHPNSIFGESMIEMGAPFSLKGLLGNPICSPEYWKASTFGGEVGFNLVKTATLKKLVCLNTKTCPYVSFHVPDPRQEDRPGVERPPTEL

Mus musculus [6] = assay: Analgesic activity in hot plate induced thermal pain Swiss albino mouse model assessed as change in latency at 10 mg/kg, po measured at 1 to 2 hrs relative to control; assay type: functional; details: time 1-2 hrs
Rattus norvegicus [7] = assay: Anti-inflammatory activity against formalin-induced foot paw edema in Wistar rat assessed as oedema inhibition at 10 mg/kg,po measured for 1 to 3 hrs by plethysmometric analysis relative to control; assay type: functional; details: time 1-3 hrs
[8] = biological target: T2, Prostaglandin G/H synthase 2 (Homo sapiens, UniProt P35354); assay: Inhibition of human recombinant COX-2
T2 sequence (P35354 whole entry): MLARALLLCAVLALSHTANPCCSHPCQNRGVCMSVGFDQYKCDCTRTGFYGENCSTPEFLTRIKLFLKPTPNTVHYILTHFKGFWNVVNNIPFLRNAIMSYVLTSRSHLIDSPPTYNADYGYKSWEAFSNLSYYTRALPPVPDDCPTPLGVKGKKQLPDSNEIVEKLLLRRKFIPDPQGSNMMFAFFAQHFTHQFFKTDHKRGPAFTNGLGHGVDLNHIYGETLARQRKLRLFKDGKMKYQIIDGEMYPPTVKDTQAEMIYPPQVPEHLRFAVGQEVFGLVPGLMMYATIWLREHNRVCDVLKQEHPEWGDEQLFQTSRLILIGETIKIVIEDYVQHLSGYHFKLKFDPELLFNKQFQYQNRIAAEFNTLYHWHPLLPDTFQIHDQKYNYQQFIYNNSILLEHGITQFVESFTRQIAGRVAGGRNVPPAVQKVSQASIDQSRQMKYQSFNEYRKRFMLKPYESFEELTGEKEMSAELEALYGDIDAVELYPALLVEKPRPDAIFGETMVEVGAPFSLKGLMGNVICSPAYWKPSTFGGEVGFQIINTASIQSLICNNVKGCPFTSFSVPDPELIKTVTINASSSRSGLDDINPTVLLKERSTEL

SMILES: Cc1ccc(-c2cc(C(F)(F)F)nn2-c2ccc(S(N)(=O)=O)cc2)cc1 [CELECOXIB]
ED50 (Rattus norvegicus [1]): 34.1 mg/kg
Activity (Rattus norvegicus [2]): 83.4%
ED50 (Rattus norvegicus [3]): 32 µmol/kg
Activity (Mus musculus [4]): 32%

IC50 [5]: 20 µM
SMILES: CC1=NN(c2cccc(Cl)c2)C(=O)/C1=C\c1cn(-c2nc(N3CCOCC3)nc(N3CCOCC3)n2)c2ccccc12

SMILES: COc1ccc(/C=C/C(=O)c2cccc(N3C(=O)c4ccccc4C3=O)c2)cc1OC
inhibition in vivo at 10 mg/kg (Mus musculus [6]): 45.8%
inhibition in vivo at 10 mg/kg (Rattus norvegicus [7]): 45%

IC50 [8]: 37 nM
SMILES: COc1ccc(/C=C/C(=O)c2cc(-n3cc(CN4C(=O)C(=O)c5ccccc54)nn3)ccc2O)cc1
